Key:
Assay in all cases: relative viability (nuclei count vs DMSO), 5 days (fraction); higher = more cells survive
Lapatinib + Linsitinib = compound: CS(=O)(=O)CCNCc1ccc(-c2ccc3ncnc(Nc4ccc(OCc5cccc(F)c5)c(Cl)c4)c3c2)o1 [Lapatinib] + C[C@]1(O)C[C@@H](c2nc(-c3ccc4ccc(-c5ccccc5)nc4c3)c3c(N)nccn32)C1 [Linsitinib] (partner 1 µM)
Procedure, shortened: (§1)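 For relative viability, nuclei counts in treated wells were divided by those in vehicle wells. Lung cancer cell lines had been pin-tool dosed in 1536-well plates the day after seeding and cultured for 5 days, then fixed and stained in one step (final 0.05% Triton X-100, 1% formaldehyde, 1 ug/ml Hoechst) and imaged at 4×. Doses were one drug alone or a fixed anchor-drug dose plus five library-drug doses (not always all listed) in √10 steps, and values are duplicate-plate medians.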

Wnt-C59 + Foretinib = compound: CC1=NC=CC(=C1)C2=CC=C(C=C2)CC(=O)NC3=CC=C(C=C3)C4=CN=CC=C4 [Wnt-C59] + COc1cc2c(Oc3ccc(NC(=O)C4(C(=O)Nc5ccc(F)cc5)CC4)cc3F)ccnc2cc1OCCCN1CCOCC1 [Foretinib] (partner 0.25 µM)
Procedure, shortened: as §1

Lapatinib + Decitabine = compound: CS(=O)(=O)CCNCc1ccc(-c2ccc3ncnc(Nc4ccc(OCc5cccc(F)c5)c(Cl)c4)c3c2)o1 [Lapatinib] + Nc1ncn([C@H]2C[C@H](O)[C@@H](CO)O2)c(=O)n1 [Decitabine] (partner 2 µM)
Procedure, shortened: as §1

Wnt-C59 + Navitoclax = compound: CC1=NC=CC(=C1)C2=CC=C(C=C2)CC(=O)NC3=CC=C(C=C3)C4=CN=CC=C4 [Wnt-C59] + CC1(C)CCC(c2ccc(Cl)cc2)=C(CN2CCN(c3ccc(C(=O)NS(=O)(=O)c4ccc(N[C@H](CCN5CCOCC5)CSc5ccccc5)c(S(=O)(=O)C(F)(F)F)c4)cc3)CC2)C1 [Navitoclax] (partner 0.5 µM)
Procedure, shortened: as §1

## SK-MES-1
Lapatinib + Linsitinib; first compound 0.02 µM
  relative viability: 1.12
Lapatinib + Linsitinib; first compound 0.06325 µM
  relative viability: 1.01
Lapatinib + Linsitinib; first compound 0.2 µM
  relative viability: 0.97
Lapatinib + Linsitinib; first compound 0.6325 µM
  relative viability: 0.69
Lapatinib + Linsitinib; first compound 2 µM
  relative viability: 0.663
Wnt-C59 + Foretinib; first compound 0.001 µM
  relative viability: 0.974
Wnt-C59 + Foretinib; first compound 0.01 µM
  relative viability: 0.81
Wnt-C59 + Foretinib; first compound 0.03162 µM
  relative viability: 0.905
Wnt-C59 + Foretinib; first compound 0.1 µM
  relative viability: 0.918
Lapatinib + Decitabine; first compound 0.02 µM
  relative viability: 0.429
Lapatinib + Decitabine; first compound 0.06325 µM
  relative viability: 0.364
Lapatinib + Decitabine; first compound 0.2 µM
  relative viability: 0.37
Lapatinib + Decitabine; first compound 0.6325 µM
  relative viability: 0.306
Lapatinib + Decitabine; first compound 2 µM
  relative viability: 0.311
Wnt-C59 + Navitoclax; first compound 0.001 µM
  relative viability: 1.2
Wnt-C59 + Navitoclax; first compound 0.01 µM
  relative viability: 1.17
Wnt-C59 + Navitoclax; first compound 0.03162 µM
  relative viability: 1.3
Wnt-C59 + Navitoclax; first compound 0.1 µM
  relative viability: 1.16

## COR-L23
Lapatinib + Linsitinib; first compound 0.02 µM
  relative viability: 0.955
Lapatinib + Linsitinib; first compound 0.06325 µM
  relative viability: 0.87
Lapatinib + Linsitinib; first compound 0.2 µM
  relative viability: 0.986
Lapatinib + Linsitinib; first compound 0.6325 µM
  relative viability: 0.945
Lapatinib + Linsitinib; first compound 2 µM
  relative viability: 0.875
Wnt-C59 + Foretinib; first compound 0.001 µM
  relative viability: 0.993
Wnt-C59 + Foretinib; first compound 0.01 µM
  relative viability: 0.916
Wnt-C59 + Foretinib; first compound 0.03162 µM
  relative viability: 0.853
Wnt-C59 + Foretinib; first compound 0.1 µM
  relative viability: 0.913
Lapatinib + Decitabine; first compound 0.02 µM
  relative viability: 0.516
Lapatinib + Decitabine; first compound 0.06325 µM
  relative viability: 0.421
Lapatinib + Decitabine; first compound 0.2 µM
  relative viability: 0.456
Lapatinib + Decitabine; first compound 0.6325 µM
  relative viability: 0.417
Lapatinib + Decitabine; first compound 2 µM
  relative viability: 0.422
Wnt-C59 + Navitoclax; first compound 0.001 µM
  relative viability: 1.13
Wnt-C59 + Navitoclax; first compound 0.01 µM
  relative viability: 1.02
Wnt-C59 + Navitoclax; first compound 0.03162 µM
  relative viability: 1.17
Wnt-C59 + Navitoclax; first compound 0.1 µM
  relative viability: 0.944

## NCI-H1355
Lapatinib + Linsitinib; first compound 0.06325 µM
  relative viability: 0.745
Lapatinib + Linsitinib; first compound 0.2 µM
  relative viability: 0.782
Lapatinib + Linsitinib; first compound 0.6325 µM
  relative viability: 0.792
Lapatinib + Linsitinib; first compound 2 µM
  relative viability: 0.526
Wnt-C59 + Foretinib; first compound 0.001 µM
  relative viability: 0.949
Wnt-C59 + Foretinib; first compound 0.01 µM
  relative viability: 0.922
Wnt-C59 + Foretinib; first compound 0.03162 µM
  relative viability: 1.01
Wnt-C59 + Foretinib; first compound 0.1 µM
  relative viability: 0.876
Lapatinib + Decitabine; first compound 0.02 µM
  relative viability: 0.352
Lapatinib + Decitabine; first compound 0.06325 µM
  relative viability: 0.33
Lapatinib + Decitabine; first compound 0.2 µM
  relative viability: 0.333
Lapatinib + Decitabine; first compound 0.6325 µM
  relative viability: 0.307
Lapatinib + Decitabine; first compound 2 µM
  relative viability: 0.353
Wnt-C59 + Navitoclax; first compound 0.001 µM
  relative viability: 1.01
Wnt-C59 + Navitoclax; first compound 0.01 µM
  relative viability: 0.876
Wnt-C59 + Navitoclax; first compound 0.03162 µM
  relative viability: 0.905
Wnt-C59 + Navitoclax; first compound 0.1 µM
  relative viability: 0.88

## NCI-H441
Lapatinib + Linsitinib; first compound 0.02 µM
  relative viability: 0.377
Lapatinib + Linsitinib; first compound 0.06325 µM
  relative viability: 0.659
Lapatinib + Linsitinib; first compound 0.2 µM
  relative viability: 0.494
Lapatinib + Linsitinib; first compound 0.6325 µM
  relative viability: 0.457
Lapatinib + Linsitinib; first compound 2 µM
  relative viability: 0.593
Wnt-C59 + Foretinib; first compound 0.001 µM
  relative viability: 0.977
Wnt-C59 + Foretinib; first compound 0.01 µM
  relative viability: 1.05
Wnt-C59 + Foretinib; first compound 0.03162 µM
  relative viability: 1.01
Wnt-C59 + Foretinib; first compound 0.1 µM
  relative viability: 1.04
Lapatinib + Decitabine; first compound 0.02 µM
  relative viability: 0.239
Lapatinib + Decitabine; first compound 0.2 µM
  relative viability: 0.268
Lapatinib + Decitabine; first compound 0.6325 µM
  relative viability: 0.266
Lapatinib + Decitabine; first compound 2 µM
  relative viability: 0.214
Wnt-C59 + Navitoclax; first compound 0.001 µM
  relative viability: 0.709
Wnt-C59 + Navitoclax; first compound 0.01 µM
  relative viability: 1.06
Wnt-C59 + Navitoclax; first compound 0.03162 µM
  relative viability: 0.743
Wnt-C59 + Navitoclax; first compound 0.1 µM
  relative viability: 0.517

## NCI-H322M
Lapatinib + Linsitinib; first compound 0.02 µM
  relative viability: 0.931
Lapatinib + Linsitinib; first compound 0.06325 µM
  relative viability: 0.839
Lapatinib + Linsitinib; first compound 0.2 µM
  relative viability: 0.803
Lapatinib + Linsitinib; first compound 0.6325 µM
  relative viability: 0.767
Lapatinib + Linsitinib; first compound 2 µM
  relative viability: 0.592
Wnt-C59 + Foretinib; first compound 0.001 µM
  relative viability: 0.879
Wnt-C59 + Foretinib; first compound 0.01 µM
  relative viability: 0.802
Wnt-C59 + Foretinib; first compound 0.03162 µM
  relative viability: 0.896
Wnt-C59 + Foretinib; first compound 0.1 µM
  relative viability: 0.68
Lapatinib + Decitabine; first compound 0.02 µM
  relative viability: 0.632
Lapatinib + Decitabine; first compound 0.06325 µM
  relative viability: 0.552
Lapatinib + Decitabine; first compound 0.2 µM
  relative viability: 0.648
Lapatinib + Decitabine; first compound 0.6325 µM
  relative viability: 0.567
Lapatinib + Decitabine; first compound 2 µM
  relative viability: 0.555
Wnt-C59 + Navitoclax; first compound 0.001 µM
  relative viability: 1.21
Wnt-C59 + Navitoclax; first compound 0.01 µM
  relative viability: 1.05
Wnt-C59 + Navitoclax; first compound 0.03162 µM
  relative viability: 0.978
Wnt-C59 + Navitoclax; first compound 0.1 µM
  relative viability: 0.993

## NCI-H1993
Lapatinib + Linsitinib; first compound 0.02 µM
  relative viability: 0.743
Lapatinib + Linsitinib; first compound 0.2 µM
  relative viability: 0.816
Lapatinib + Linsitinib; first compound 0.6325 µM
  relative viability: 0.752
Lapatinib + Linsitinib; first compound 2 µM
  relative viability: 0.639
Wnt-C59 + Foretinib; first compound 0.001 µM
  relative viability: 0.81
Wnt-C59 + Foretinib; first compound 0.03162 µM
  relative viability: 0.987
Wnt-C59 + Foretinib; first compound 0.1 µM
  relative viability: 0.706
Lapatinib + Decitabine; first compound 0.02 µM
  relative viability: 0.68
Lapatinib + Decitabine; first compound 0.2 µM
  relative viability: 0.555
Lapatinib + Decitabine; first compound 0.6325 µM
  relative viability: 0.64
Lapatinib + Decitabine; first compound 2 µM
  relative viability: 0.462
Wnt-C59 + Navitoclax; first compound 0.001 µM
  relative viability: 1.04
Wnt-C59 + Navitoclax; first compound 0.01 µM
  relative viability: 0.82
Wnt-C59 + Navitoclax; first compound 0.03162 µM
  relative viability: 1.09
Wnt-C59 + Navitoclax; first compound 0.1 µM
  relative viability: 0.972

## LOU-NH91
Lapatinib + Linsitinib; first compound 0.02 µM
  relative viability: 0.861
Lapatinib + Linsitinib; first compound 0.06325 µM
  relative viability: 0.761
Lapatinib + Linsitinib; first compound 0.2 µM
  relative viability: 0.753
Lapatinib + Linsitinib; first compound 0.6325 µM
  relative viability: 0.637
Lapatinib + Linsitinib; first compound 2 µM
  relative viability: 0.464
Wnt-C59 + Foretinib; first compound 0.001 µM
  relative viability: 0.941
Wnt-C59 + Foretinib; first compound 0.01 µM
  relative viability: 0.764
Wnt-C59 + Foretinib; first compound 0.03162 µM
  relative viability: 0.988
Wnt-C59 + Foretinib; first compound 0.1 µM
  relative viability: 0.92
Lapatinib + Decitabine; first compound 0.02 µM
  relative viability: 0.789
Lapatinib + Decitabine; first compound 0.06325 µM
  relative viability: 0.709
Lapatinib + Decitabine; first compound 0.2 µM
  relative viability: 0.65
Lapatinib + Decitabine; first compound 0.6325 µM
  relative viability: 0.663
Lapatinib + Decitabine; first compound 2 µM
  relative viability: 0.652
Wnt-C59 + Navitoclax; first compound 0.001 µM
  relative viability: 0.823
Wnt-C59 + Navitoclax; first compound 0.01 µM
  relative viability: 0.573
Wnt-C59 + Navitoclax; first compound 0.03162 µM
  relative viability: 0.638
Wnt-C59 + Navitoclax; first compound 0.1 µM
  relative viability: 0.713

## 201T
Lapatinib + Linsitinib; first compound 0.02 µM
  relative viability: 0.96
Lapatinib + Linsitinib; first compound 0.06325 µM
  relative viability: 0.92
Lapatinib + Linsitinib; first compound 0.2 µM
  relative viability: 1
Lapatinib + Linsitinib; first compound 0.6325 µM
  relative viability: 1.04
Lapatinib + Linsitinib; first compound 2 µM
  relative viability: 0.909
Wnt-C59 + Foretinib; first compound 0.001 µM
  relative viability: 1.19
Wnt-C59 + Foretinib; first compound 0.01 µM
  relative viability: 1.15
Wnt-C59 + Foretinib; first compound 0.03162 µM
  relative viability: 1.04
Wnt-C59 + Foretinib; first compound 0.1 µM
  relative viability: 1.15
Lapatinib + Decitabine; first compound 0.02 µM
  relative viability: 0.845
Lapatinib + Decitabine; first compound 0.06325 µM
  relative viability: 0.812
Lapatinib + Decitabine; first compound 0.2 µM
  relative viability: 0.813
Lapatinib + Decitabine; first compound 0.6325 µM
  relative viability: 0.827
Lapatinib + Decitabine; first compound 2 µM
  relative viability: 0.817
Wnt-C59 + Navitoclax; first compound 0.001 µM
  relative viability: 1.21
Wnt-C59 + Navitoclax; first compound 0.01 µM
  relative viability: 1.2
Wnt-C59 + Navitoclax; first compound 0.03162 µM
  relative viability: 1.19
Wnt-C59 + Navitoclax; first compound 0.1 µM
  relative viability: 1.2

## LXF-289
Lapatinib + Linsitinib; first compound 0.02 µM
  relative viability: 0.983
Lapatinib + Linsitinib; first compound 0.06325 µM
  relative viability: 0.913
Lapatinib + Linsitinib; first compound 0.2 µM
  relative viability: 0.982
Lapatinib + Linsitinib; first compound 0.6325 µM
  relative viability: 0.902
Lapatinib + Linsitinib; first compound 2 µM
  relative viability: 0.816
Wnt-C59 + Foretinib; first compound 0.001 µM
  relative viability: 0.991
Wnt-C59 + Foretinib; first compound 0.01 µM
  relative viability: 0.98
Wnt-C59 + Foretinib; first compound 0.03162 µM
  relative viability: 1.01
Wnt-C59 + Foretinib; first compound 0.1 µM
  relative viability: 0.979
Lapatinib + Decitabine; first compound 0.02 µM
  relative viability: 0.358
Lapatinib + Decitabine; first compound 0.06325 µM
  relative viability: 0.377
Lapatinib + Decitabine; first compound 0.2 µM
  relative viability: 0.354
Lapatinib + Decitabine; first compound 0.6325 µM
  relative viability: 0.385
Lapatinib + Decitabine; first compound 2 µM
  relative viability: 0.408
Wnt-C59 + Navitoclax; first compound 0.001 µM
  relative viability: 0.999
Wnt-C59 + Navitoclax; first compound 0.01 µM
  relative viability: 0.912
Wnt-C59 + Navitoclax; first compound 0.03162 µM
  relative viability: 0.929
Wnt-C59 + Navitoclax; first compound 0.1 µM
  relative viability: 0.948
